Earlier results in PMC7248880, “Preclinical Incorporation Dosimetry of [^18F]FACH—A Novel ^18F-Labeled MCT1/MCT4 Lactate Transporter Inhibitor for Imaging Cancer Metabolism with PET” (Molecules, 2020).

Legend:
[1] = piglet biokinetic data; cited from earlier work
[2] = tested on: MCT4; design: method as in PMID 31017677, PMID 31017677; conditions: cited from earlier work
[3] = tested on: MCT1; design: method as in PMID 31017677, PMID 31017677; conditions: cited from earlier work

| Compound | ED, Preclinical [1] [μSv/MBq] | IC50 [2] [nM] | IC50 [3] [nM] |
| --- | --- | --- | --- |
| FCC[C@@H]1OC2(CCN(Cc3ccccc3)CC2)c2ccccc21 [(S)-(−)-[^18F]fluspidine] | 12.9 | – | – |
| [18F]CC[C@H]1OC2(CCN(Cc3ccccc3)CC2)c2ccccc21 [(R)-(+)-[^18F]fluspidine] | 14.0 | – | – |
| O=S1(=O)c2ccc([18F])cc2-c2ccc(N3CCN4CCC3CC4)cc21 [[^18F]DBT10] | 13.7 | – | – |
| [18F]c1ccc([C@@H]2C[C@H]3CCC[C@@H]2N3)cn1 [(−)-[^18F]flubatine] | 14.7 | – | – |
| CCCN(CCCF)c1ccc(/C=C(\C#N)C(=O)O)c(OC)c1 [FACH] | – | 6.5 | 11 |
| [18F]c1ccc(C2CC3CCCC2N3)cn1 (single isomer, unassigned; (+)) [(+)-[^18F]flubatine] | 14.3 | – | – |
